Test results reported in ChEMBL document CHEMBL5696442, “Discovery of type II inhibitors of TGFβ-activated kinase 1 (TAK1) and mitogen-activated protein kinase kinase kinase kinase 2 (MAP4K2)” (J Med Chem, 2015).
The source made the active and inactive calls. The calls are words filed in the database; no cut-off is given here.

Assays:
[1] = molecular target: STE20/SPS1-related proline-alanine-rich protein kinase (Homo sapiens) (UniProt Q9UEW8); assay: Inhibition of STLK3 Lys2 labeling site in human Huh-7 cell lysate at 1 uM by KiNativ Profiling analysis relative to control; format: subcellular
[2] = molecular target: Serine/threonine-protein kinase MARK2 (Homo sapiens) (UniProt Q7KZI7); assay: Inhibition of MARK2 Lys2 labeling site harbouring EVAIKIIDKTQLNPTSLQK in human Huh-7 cells at 1 uM by KiNativ Profiling analysis relative to control; format: cell-based
[3] = molecular target: Protein kinase C alpha type (Homo sapiens) (UniProt P17252); assay: Inhibition of PKCa Lys2 labeling site in human Huh-7 cell lysate at 1 uM by KiNativ Profiling analysis relative to control; format: subcellular
[4] = molecular target: Mitogen-activated protein kinase 4 (Homo sapiens) (UniProt P31152); assay: Inhibition of ERK4 (unknown origin) at 1 uM by Ambit Kinomescan binding assay relative to control
[5] = molecular target: MAP kinase-activated protein kinase 2 (Homo sapiens) (UniProt P49137); assay: Inhibition of MAPKAPK2 (unknown origin) at 1 uM by Ambit Kinomescan binding assay relative to control
[6] = molecular target: T1, Serine/threonine-protein kinase TBK1 (Homo sapiens) (UniProt Q9UHD2); assay: Inhibition of TBK1 Lys2 labeling site in human A-375 cells at 5 uM by KiNativ Profiling analysis relative to control; format: cell-based
T1 sequence (whole entry): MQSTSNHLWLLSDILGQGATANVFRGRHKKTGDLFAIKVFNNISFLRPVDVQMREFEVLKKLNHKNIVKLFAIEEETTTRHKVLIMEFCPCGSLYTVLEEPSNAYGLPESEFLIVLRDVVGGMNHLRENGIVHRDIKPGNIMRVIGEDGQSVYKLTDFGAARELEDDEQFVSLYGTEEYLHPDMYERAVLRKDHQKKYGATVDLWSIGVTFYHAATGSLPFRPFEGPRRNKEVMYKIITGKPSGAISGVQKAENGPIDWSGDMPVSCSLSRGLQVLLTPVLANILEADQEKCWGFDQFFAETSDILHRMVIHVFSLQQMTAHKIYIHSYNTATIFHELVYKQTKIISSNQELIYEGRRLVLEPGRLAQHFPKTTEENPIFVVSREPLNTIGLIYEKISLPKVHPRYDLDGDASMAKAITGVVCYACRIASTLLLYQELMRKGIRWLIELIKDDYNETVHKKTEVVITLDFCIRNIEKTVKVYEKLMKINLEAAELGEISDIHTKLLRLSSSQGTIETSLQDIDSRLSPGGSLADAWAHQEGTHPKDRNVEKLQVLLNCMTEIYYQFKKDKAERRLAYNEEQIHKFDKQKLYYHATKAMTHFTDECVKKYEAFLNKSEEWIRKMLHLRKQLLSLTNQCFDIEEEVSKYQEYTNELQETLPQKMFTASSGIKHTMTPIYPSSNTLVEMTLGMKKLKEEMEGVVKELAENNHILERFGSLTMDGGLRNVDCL

[7] = molecular target: Cyclin-dependent kinase 11B (Homo sapiens) (UniProt P21127); assay: Inhibition of CDK11 (unknown origin) at 1 uM by Ambit Kinomescan binding assay relative to control
[8] = molecular target: T2, Serine/threonine-protein kinase D1 (Homo sapiens) (UniProt Q15139); assay: Inhibition of PRKD1 (unknown origin) at 1 uM by Ambit Kinomescan binding assay relative to control
T2 sequence (whole entry): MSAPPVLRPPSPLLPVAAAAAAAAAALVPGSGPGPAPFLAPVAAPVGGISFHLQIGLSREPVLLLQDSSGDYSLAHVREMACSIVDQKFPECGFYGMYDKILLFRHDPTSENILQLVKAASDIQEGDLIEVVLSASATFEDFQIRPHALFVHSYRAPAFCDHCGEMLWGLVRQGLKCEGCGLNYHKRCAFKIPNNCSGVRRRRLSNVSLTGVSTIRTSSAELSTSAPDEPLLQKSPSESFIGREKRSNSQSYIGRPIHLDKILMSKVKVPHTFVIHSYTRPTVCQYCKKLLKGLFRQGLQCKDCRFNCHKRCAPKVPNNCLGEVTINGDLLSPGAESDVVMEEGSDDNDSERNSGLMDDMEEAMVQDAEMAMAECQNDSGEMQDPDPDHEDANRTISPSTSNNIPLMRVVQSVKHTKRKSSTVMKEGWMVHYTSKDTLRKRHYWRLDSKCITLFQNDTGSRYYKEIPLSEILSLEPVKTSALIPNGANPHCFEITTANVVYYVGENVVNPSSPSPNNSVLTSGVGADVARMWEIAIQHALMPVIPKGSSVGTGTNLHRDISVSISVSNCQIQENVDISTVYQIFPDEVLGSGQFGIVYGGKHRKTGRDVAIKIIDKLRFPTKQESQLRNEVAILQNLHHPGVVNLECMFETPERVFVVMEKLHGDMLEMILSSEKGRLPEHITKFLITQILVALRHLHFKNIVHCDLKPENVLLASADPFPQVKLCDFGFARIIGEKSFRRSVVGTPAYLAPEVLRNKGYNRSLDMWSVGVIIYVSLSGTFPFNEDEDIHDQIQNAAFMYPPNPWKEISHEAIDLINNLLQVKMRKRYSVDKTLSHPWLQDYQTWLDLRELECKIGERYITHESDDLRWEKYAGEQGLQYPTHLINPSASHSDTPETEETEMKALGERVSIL

[9] = molecular target: Wee1-like protein kinase (Homo sapiens) (UniProt P30291); assay: Inhibition of Wee1 K2 labeling site in human Huh-7 cells at 10 uM by KiNativ Profiling analysis relative to control; format: cell-based
[10] = Inhibition of KHS1/2 K2 labeling site in human Huh-7 cells at 1 uM by KiNativ Profiling analysis relative to control; conditions: condition cancer
[11] = molecular target: Serine/threonine-protein kinase 32C (Homo sapiens) (UniProt Q86UX6); assay: Inhibition of YANK3 (unknown origin) at 10 uM by Ambit Kinomescan binding assay
[12] = molecular target: Serine/threonine-protein kinase MARK2 (Homo sapiens) (UniProt Q7KZI7); assay: Inhibition of MARK2 K1 labeling site harbouring HILTGKEVAVKIIDKTQLNSSSLQK in human Huh-7 cells at 1 uM by KiNativ Profiling analysis relative to control; format: cell-based
[13] = molecular target: Peripheral plasma membrane protein CASK (Homo sapiens) (UniProt O14936); assay: Inhibition of CASK K1 labeling site in human Huh-7 cells at 1 uM by KiNativ Profiling analysis relative to control
[14] = molecular target: Epidermal growth factor receptor (Homo sapiens) (UniProt P00533); assay: Inhibition of EGFR Lys1 labeling site in human A-375 cells at 0.05 uM by KiNativ Profiling analysis relative to control; format: cell-based
[15] = molecular target: Microtubule-associated serine/threonine-protein kinase 3 (Homo sapiens) (UniProt O60307); assay: Inhibition of MAST3 Lys2 labeling site in human A-375 cells at 0.5 uM by KiNativ Profiling analysis relative to control; format: cell-based

Sequence of Serine/threonine-protein kinase MARK2 (Homo sapiens) (Q7KZI7 whole entry): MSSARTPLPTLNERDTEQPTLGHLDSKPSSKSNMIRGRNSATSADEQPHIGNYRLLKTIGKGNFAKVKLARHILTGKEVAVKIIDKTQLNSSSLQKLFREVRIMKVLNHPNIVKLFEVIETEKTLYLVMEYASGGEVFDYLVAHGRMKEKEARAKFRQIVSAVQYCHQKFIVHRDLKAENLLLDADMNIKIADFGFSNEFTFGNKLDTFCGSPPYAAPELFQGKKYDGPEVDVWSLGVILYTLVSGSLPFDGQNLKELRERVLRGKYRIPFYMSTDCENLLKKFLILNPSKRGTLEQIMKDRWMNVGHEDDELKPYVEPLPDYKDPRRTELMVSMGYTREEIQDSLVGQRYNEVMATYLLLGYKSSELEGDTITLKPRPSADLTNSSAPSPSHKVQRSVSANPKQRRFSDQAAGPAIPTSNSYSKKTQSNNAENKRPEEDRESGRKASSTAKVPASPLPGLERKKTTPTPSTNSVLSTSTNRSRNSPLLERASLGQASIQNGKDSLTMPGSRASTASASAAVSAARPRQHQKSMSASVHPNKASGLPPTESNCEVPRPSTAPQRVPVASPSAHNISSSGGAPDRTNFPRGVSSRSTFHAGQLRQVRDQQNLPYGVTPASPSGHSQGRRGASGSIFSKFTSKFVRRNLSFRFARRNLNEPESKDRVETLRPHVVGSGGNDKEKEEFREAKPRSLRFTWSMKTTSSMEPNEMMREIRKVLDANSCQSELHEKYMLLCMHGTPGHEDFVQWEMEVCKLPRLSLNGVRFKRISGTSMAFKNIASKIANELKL
Sequence of Wee1-like protein kinase (Homo sapiens) (P30291 whole entry, looked up): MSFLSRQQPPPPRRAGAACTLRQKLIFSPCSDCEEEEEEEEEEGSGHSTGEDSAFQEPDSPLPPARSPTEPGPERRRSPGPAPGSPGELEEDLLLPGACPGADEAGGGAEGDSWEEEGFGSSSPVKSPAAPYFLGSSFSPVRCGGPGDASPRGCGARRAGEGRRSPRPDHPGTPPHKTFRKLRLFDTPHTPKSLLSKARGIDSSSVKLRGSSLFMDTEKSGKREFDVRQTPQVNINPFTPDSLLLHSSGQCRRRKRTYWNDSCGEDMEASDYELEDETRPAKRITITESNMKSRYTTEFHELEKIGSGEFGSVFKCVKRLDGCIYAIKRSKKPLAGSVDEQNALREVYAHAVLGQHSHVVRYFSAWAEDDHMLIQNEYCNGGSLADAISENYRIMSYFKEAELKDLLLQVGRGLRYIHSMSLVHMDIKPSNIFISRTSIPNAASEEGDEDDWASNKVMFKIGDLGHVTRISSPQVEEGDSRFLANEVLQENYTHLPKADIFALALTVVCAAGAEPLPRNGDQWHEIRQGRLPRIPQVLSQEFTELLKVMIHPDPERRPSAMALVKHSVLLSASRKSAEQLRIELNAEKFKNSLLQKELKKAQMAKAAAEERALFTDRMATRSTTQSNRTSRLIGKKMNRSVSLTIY
Sequence of Epidermal growth factor receptor (Homo sapiens) (P00533 whole entry): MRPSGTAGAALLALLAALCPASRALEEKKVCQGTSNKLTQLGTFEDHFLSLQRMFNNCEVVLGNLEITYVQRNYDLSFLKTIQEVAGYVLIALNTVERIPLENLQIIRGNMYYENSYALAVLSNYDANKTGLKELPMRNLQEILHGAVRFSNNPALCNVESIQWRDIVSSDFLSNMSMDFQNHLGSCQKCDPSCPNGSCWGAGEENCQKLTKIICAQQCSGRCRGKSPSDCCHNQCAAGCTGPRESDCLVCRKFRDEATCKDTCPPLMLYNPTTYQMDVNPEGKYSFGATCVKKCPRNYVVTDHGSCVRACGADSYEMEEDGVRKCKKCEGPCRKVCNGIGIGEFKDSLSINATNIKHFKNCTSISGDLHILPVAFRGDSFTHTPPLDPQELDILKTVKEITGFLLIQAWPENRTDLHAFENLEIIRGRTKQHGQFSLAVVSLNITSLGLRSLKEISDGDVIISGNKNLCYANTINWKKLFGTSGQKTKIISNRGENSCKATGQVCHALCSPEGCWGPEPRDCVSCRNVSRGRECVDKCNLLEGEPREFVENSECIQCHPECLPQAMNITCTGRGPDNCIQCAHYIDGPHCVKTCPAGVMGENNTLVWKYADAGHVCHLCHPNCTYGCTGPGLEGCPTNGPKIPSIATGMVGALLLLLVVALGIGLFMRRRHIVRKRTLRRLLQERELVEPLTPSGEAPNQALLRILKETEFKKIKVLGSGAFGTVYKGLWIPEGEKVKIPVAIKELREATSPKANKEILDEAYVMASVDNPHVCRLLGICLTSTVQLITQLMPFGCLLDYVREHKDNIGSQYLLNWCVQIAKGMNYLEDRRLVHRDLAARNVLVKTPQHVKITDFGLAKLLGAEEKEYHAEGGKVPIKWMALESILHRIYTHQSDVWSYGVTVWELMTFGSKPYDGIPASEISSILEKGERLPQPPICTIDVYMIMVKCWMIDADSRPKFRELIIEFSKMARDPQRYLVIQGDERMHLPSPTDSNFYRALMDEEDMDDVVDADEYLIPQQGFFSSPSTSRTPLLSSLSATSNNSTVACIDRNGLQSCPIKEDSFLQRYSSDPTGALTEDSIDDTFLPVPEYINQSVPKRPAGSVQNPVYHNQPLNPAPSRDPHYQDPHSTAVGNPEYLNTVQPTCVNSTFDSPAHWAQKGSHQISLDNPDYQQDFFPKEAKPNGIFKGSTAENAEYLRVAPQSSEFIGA
Sequence of Mitogen-activated protein kinase 4 (Homo sapiens) (P31152 whole entry): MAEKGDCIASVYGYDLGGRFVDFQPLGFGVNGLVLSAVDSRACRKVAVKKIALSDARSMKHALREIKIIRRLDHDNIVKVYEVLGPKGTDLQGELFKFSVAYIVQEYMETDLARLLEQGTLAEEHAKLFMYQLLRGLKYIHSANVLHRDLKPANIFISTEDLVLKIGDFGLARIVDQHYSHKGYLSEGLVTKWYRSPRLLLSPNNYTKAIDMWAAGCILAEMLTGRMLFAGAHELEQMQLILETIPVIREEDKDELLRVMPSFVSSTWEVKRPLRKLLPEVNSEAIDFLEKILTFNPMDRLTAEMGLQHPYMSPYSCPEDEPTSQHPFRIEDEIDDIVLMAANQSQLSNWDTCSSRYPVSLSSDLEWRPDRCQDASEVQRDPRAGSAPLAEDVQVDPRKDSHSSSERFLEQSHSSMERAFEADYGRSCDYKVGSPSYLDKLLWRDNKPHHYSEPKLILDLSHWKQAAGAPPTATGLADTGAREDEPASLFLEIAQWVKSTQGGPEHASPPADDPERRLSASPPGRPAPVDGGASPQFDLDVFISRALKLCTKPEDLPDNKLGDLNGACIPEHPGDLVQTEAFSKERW
Sequence of MAP kinase-activated protein kinase 2 (Homo sapiens) (P49137 whole entry, looked up): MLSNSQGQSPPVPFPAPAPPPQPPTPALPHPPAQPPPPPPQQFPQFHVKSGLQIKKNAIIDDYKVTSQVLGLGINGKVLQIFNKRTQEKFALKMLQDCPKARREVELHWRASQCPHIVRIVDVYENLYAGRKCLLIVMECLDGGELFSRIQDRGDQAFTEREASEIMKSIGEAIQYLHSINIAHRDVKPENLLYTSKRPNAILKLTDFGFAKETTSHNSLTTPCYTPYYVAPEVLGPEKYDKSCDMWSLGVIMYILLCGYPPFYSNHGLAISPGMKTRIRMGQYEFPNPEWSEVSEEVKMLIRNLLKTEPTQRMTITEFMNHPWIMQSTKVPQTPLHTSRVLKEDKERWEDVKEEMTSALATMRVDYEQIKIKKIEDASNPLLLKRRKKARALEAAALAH
Sequence of Serine/threonine-protein kinase 32C (Homo sapiens) (Q86UX6 whole entry): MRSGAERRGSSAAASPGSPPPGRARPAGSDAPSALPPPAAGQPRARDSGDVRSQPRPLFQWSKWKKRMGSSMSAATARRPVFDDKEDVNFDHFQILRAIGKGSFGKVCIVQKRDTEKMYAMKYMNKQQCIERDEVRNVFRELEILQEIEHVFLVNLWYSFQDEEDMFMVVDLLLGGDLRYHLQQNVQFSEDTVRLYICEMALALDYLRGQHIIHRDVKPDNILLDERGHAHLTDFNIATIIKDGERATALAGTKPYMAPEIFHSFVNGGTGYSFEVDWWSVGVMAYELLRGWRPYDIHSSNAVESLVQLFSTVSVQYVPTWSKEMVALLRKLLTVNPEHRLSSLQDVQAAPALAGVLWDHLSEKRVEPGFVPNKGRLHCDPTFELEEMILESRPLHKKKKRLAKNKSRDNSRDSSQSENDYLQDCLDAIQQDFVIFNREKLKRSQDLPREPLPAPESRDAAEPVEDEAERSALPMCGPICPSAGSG

Compound `CNc1cc(Oc2cc(C(=O)Nc3cc(N4CCN(C)CC4)cc(C(F)(F)F)c3)ccc2C)ncn1` has an inhibition [1] of 9.8%, an inhibition [2] of 11.3% and an inhibition [3] of -1.2%.

Work on `CCN1CCN(Cc2ccc(NC(=O)c3ccc(C)c(/C=C/c4cnc5[nH]ccc5c4OC)c3)cc2C(F)(F)F)CC1` yielded an inhibition [4] of 77%, an inhibition [5] of 100% and an inhibition [6] of 37.6%. For the same compound, the inhibition [7] was 27% and the inhibition [8] was 100%.

In the case of `CCN1CCN(Cc2ccc(NC(=O)c3ccc(C)c(Oc4ccnc5[nH]ccc45)c3)cc2C(F)(F)F)CC1`, the inhibition [9] was -2.8%, the inhibition at 1 µM [10] was 6.6% and the inhibition [11] was “inactive”. For the same compound, the inhibition [12] was “inactive”, the inhibition [13] was 3.8% and the inhibition [14] was 11.7%. The inhibition [15] was 2.5%.
